Data on five molecules can be found in patent US20250186404A1, “METHODS OF USING A (THIAZOLYL)BENZENESULFONAMIDE DERIVATIVE” (Cyteir Therapeutics, Inc., priority 2023, published 2025).

The test system of test [1] is Daudi (Burkitt Lymphoma) cells. Put plainly: Intracellular Lactate Accumulation Assay (Lactate-Glo). It is filed as cell-based, human. The settings on record: Homo sapiens; Daudi cells, 2 h treatment, intracellular lactate accumulation; read-out: LactateGlo EC50. As for the experimental part: Intracellular lactate accumulation after a 2 h treatment with compounds of the present invention was measured in Daudi (Burkitt Lymphoma) cells using the Lactate-Glo Assay (Promega).
Daudi cells were seeded at 7,500 cells per well in 150 μL of growth medium (RPMI-1640 with 2 mM GlutaMAX+10% FBS) in clear, 96-well, flat-bottom microplates, and incubated overnight (37° C., 5% CO2). Compounds of the present invention were added using an INTEGRA VIAFLO 96 (8 point, 3-fold serial dilution, top concentration 1, 10, or 20 μM, 0.4% final DMSO concentration). After a 2 h incubation (37° C., 5% CO2) microplates containing cells were washed twice with 150 μL ice-cold PBS, resuspended in 25 μL ice-cold PBS containing 12.5 μL 0.6N HCl, and placed on a microplate shaker for 5 min to lyse the cells. Following lysis, 12.5 μL 1M Trizma base was added to neutralize the suspension, and microplates were returned to the microplate shaker for 1 min. Plates were sealed and stored at −20° C. until further processing. On the day of the assay, microplates were thawed for 45 min at room temperate and 50 μL Lactate Detection Reagent (prepared as specified by manufacturer) was added to each well. Microplates were placed on a plate shaker for 1 min and incubated at room temperature for 1 h. Luminescence was measured using a BioTek Cytation 5 Multi-Mode Reader. Curve fitting and calculation of EC50 was performed using GraphPad Prism.
In addition, Daudi human lymphoma cells were treated with a titration of Compound 67A for 4 h, then intracellular lactate was measured via LactateGlo (FIG. 2). Compound 67A treatment elevates intracellular lactate (FIGS. 3-5). […] Inhibiting MCT function in glycolytic cancer cells leads to an accumulation of intracellular lactate that impairs glycolysis and inhibits tumor cell growth, thereby making MCTs an attractive target for cancer therapy. Compound 67A inhibits the import of MCT ligands into cells, and induces dose-dependent intracellular lactate accumulation that correlates with cytotoxicity. MCT4 expression inversely correlates with lactate accumulation and the extent of Compound 67A cytotoxicity in cells.

The target in another test is T1, human MCT1 (Homo sapiens, UniProt P53985).
T1 construct: host or cells: MDCK-II (canine) cells, transient co-transfection
T1 sequence (P53985 1-500): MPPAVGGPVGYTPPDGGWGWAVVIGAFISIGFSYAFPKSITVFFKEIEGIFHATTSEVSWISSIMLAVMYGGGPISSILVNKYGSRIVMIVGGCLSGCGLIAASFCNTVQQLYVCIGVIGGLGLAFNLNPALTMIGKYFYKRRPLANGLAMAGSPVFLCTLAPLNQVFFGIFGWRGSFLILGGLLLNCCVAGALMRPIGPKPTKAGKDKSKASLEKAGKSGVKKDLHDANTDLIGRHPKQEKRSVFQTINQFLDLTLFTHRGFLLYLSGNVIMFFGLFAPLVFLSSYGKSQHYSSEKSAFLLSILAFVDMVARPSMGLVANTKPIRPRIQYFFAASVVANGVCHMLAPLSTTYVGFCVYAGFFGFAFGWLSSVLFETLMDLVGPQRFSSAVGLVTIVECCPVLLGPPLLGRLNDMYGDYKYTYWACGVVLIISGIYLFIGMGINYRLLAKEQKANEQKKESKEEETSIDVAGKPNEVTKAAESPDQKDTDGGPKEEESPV
T1 sequence (P35613 140-385 partner limits assumed): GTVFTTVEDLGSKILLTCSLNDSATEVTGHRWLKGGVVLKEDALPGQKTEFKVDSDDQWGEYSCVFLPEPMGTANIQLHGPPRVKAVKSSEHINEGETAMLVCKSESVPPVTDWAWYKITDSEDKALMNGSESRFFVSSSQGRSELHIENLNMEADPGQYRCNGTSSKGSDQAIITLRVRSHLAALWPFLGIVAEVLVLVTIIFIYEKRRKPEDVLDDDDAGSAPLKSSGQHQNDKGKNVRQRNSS
Description: MCT1 Transport Inhibition Assay (TPGA uptake, LC-MS/MS). It is filed as cell-based. The settings on record: MDCK-II cells overexpressing human MCT1, TPGA transport; read-out: BioIVT MCT1 Transporter IC50. As for the experimental part: Inhibition of MCT1 transport after treatment with compounds of the present invention was measured in MDCK-II cells that overexpress human MCT1 by quantifying the transport of 2-Thiophene-glycoxylic acid (TPGA) into cells using LC-MS/MS.
MDCK-II cells are seeded at 60,000 cells per well in growth medium (low-glucose DMEM+10% FBS) in 96-well trans-well membrane plates, and incubated overnight (37° C., 5% CO2). Cells were co-transfected with mammalian expression constructs coding for MCT1 and CD147 at a 2:1 ratio or an empty vector control (GFP) and then incubated for 48 h (37° C., 5% CO2). Cells were washed 3 times with HBSS and cells were preincubated with inhibitors or vehicle control at room temperature in HBSS for 30 min with orbital shaking (60 rpm). HBSS was aspirated from the wells and replaced with HBSS with 25 mM Bis-Tris pH5.5+inhibitor or vehicle control+500 μM TPGA and incubated for 1 min at room temperature with orbital shaking (60 rpm). Both the apical and basolateral side of the trans-well insert were washed 4 times with ice-cold PBS. Cells were lysed with 60 μL of cell extraction solution, and the amount of TPGA in each well was quantified in triplicate by LC-MS/MS. The MCT1-mediated uptake rate was calculated using the following equation: […]
Percent inhibition for each concentration of inhibitor tested was calculated using the following equation: […]
Curves were fit to the calculated percent inhibition for each inhibitor, and the IC50 representing the concentration of inhibitor at which MCT1 is inhibited by 50% was calculated from this curve.
Canine MDCKII cells expressing human MCT1 were treated with a titration of Compound 67A, and import of the MCT1 substrate, 2-TPGA was measured by LC-MS (FIG. 1).

Turning to `COC(=O)NC1CCC(c2ncc(-c3ccc(NC(=O)OC(C)C)cc3S(=O)(=O)NC(C)(C)C)s2)CC1` (stereo not drawn) [Compound 76], the EC50 in test [1] was > 5000 nM. As to `CC(C)OC(=O)N[C@H]1CC[C@H](c2ncc(-c3ccc(NC(=O)NCc4ccccc4)cc3S(=O)(=O)NC(C)(C)C)s2)CC1` [Compound 62B], the IC50 at human MCT1 is 150 to 1000 nM. As for `CC(C)OC(=O)NC1CCC(c2ncc(-c3ccc(NC(=O)NCc4ccccc4)cc3S(=O)(=O)NC(C)(C)C)s2)CC1` (stereo not drawn) [Compound 62B], in test [1], the EC50 was < 50 nM.

With `CC(C)OC(=O)Nc1ccc(-c2cnc([C@H]3CC[C@@H](NC(=O)OC(C)C)CC3)s2)c(S(=O)(=O)NC(C)(C)C)c1` [Compound 67B], at human MCT1, the IC50 lay within 1000 to 5000 nM. Moreover, the EC50 in test [1] was > 5000 nM. `CNC(=N)Nc1ccc(-c2cnc(C3CCC(NC(=O)OC(C)C)CC3)s2)c(S(=O)(=O)NC(C)(C)C)c1` (stereo not drawn) [Compound 75]: the EC50 in test [1] is > 5000 nM.

What is called EC50 is the concentration giving half of the maximal effect. As usually defined, the IC50 is the midpoint of a concentration-inhibition curve.
